This assay has as its system NCIH929.1 cells. Put plainly: Cell viability assay for Table 2 (CellTiter-Glo 2.0, ATP quantification, 96 hr). It counts as cell-based. The conditions noted are these: 96 h, NCIH929.1 cell viability, 96 hr, top concentration 1 μM, 14 points half log titration; read-out: IC50. The text has this:
Cell Viability Assay for Table 2
CellTiter-Glo® 2.0 Assay was purchased from Promega (Madison, Wis., USA). NCIH929.1 cell line was purchased from ATCC (Manassas, Va., USA). Cell culture flasks and 384-well microplates were acquired from VWR (Radnor, Pa., USA).
(ATP-based viability assays read luminescence as a measure of living cells.)

The results in this text go back to patent US20230082430A1 (C4 Therapeutics, Inc., priority 2019, published 2023).

The IC50 is the midpoint of a concentration-inhibition curve.

As to `CC(C)(C)CN1CCC(C)(n2cc(Cc3ccc4c5c(cccc35)C(=O)N4C3CCC(=O)NC3=O)cn2)CC1` (centres unmarked) [Compound 104, 3-(6-((1-(4-methyl-1-neopentylpiperidin-4-yl)-1H-pyrazol-4-yl)methyl)-2-oxobenzo[cd]indol-1(2H)-yl)piperidine-2,6-dione], the IC50 is below 1 nM. Under `CC1(n2cc(Cc3ccc4c5c(cccc35)C(=O)N4C3CCC(=O)NC3=O)cn2)CCN(CC2(C(F)(F)F)CC2)CC1` (centres unmarked) [Compound 105, 3-(6-((1-(4-methyl-1-((1-(trifluoromethyl)cyclopropyl)methyl)piperidin-4-yl)-1H-pyrazol-4-yl)methyl)-2-oxobenzo[cd]indol-1(2H)-yl)piperidine-2,6-dione] stands below 1 nM; under `CC1(n2cc(Cc3ccc4c5c(cccc35)C(=O)N4C3CCC(=O)NC3=O)cn2)CCN(CC2(F)CC2)CC1` (centres unmarked) [Compound 106, 3-(6-((1-(1-((1-fluorocyclopropyl)methyl)-4-methylpiperidin-4-yl)-1H-pyrazol-4-yl)methyl)-2-oxobenzo[cd]indol-1(2H)-yl)piperidine-2,6-dione], below 1 nM; under `CC(C)(C)OC(=O)N1CCN(Cc2ccc(Cc3ccc4c5c(cccc35)C(=O)N4C3CCC(=O)NC3=O)cc2)CC1` (centres unmarked) [Compound 107, tert-butyl 4-(4-((1-(2,6-dioxopiperidin-3-yl)-2-oxo-1,2-dihydrobenzo[cd]indol-6-yl)methyl)benzyl)piperazine-1-carboxylate], below 1 nM. Under `CC(=O)N1CCN(Cc2ccc(Cc3ccc4c5c(cccc35)C(=O)N4C3CCC(=O)NC3=O)cc2)CC1` (centres unmarked) [Compound 108, 3-(6-(4-((4-acetylpiperazin-1-yl)methyl)benzyl)-2-oxobenzo[cd]indol-1(2H)-yl)piperidine-2,6-dione] stands below 1 nM; under `O=C1CCC(N2C(=O)c3cccc4c(Cc5ccc(CN6CCN(S(=O)(=O)CC(F)(F)F)CC6)cc5)ccc2c34)C(=O)N1` (centres unmarked) [Compound 109, 3-(2-oxo-6-(4-((4-((2,2,2-trifIuoroethyl)sulfonyl)piperazin-1-yl)methyl)benzyl)benzo[cd]indol-1(2H)-yl)piperidine-2,6-dione], below 1 nM. Under `CC1(C(=O)N2CCN(Cc3ccc(Cc4ccc5c6c(cccc46)C(=O)N5C4CCC(=O)NC4=O)cc3)CC2)CCC1` (centres unmarked) [Compound 110, 3-(6-(4-((4-(1-methylcyclobutane-1-carbonyl)piperazin-1-yl)methyl)benzyl)-2-oxobenzo[cd]indol-1(2H)-yl)piperidine-2,6-dione] stands below 1 nM; under `O=C1CCC(N2C(=O)c3cccc4c(Cc5ccc(CN6CCN(C(=O)c7ccccc7)CC6)cc5)ccc2c34)C(=O)N1` (centres unmarked) [Compound 111, 3-(6-(4-((4-benzoylpiperazin-1-yl)methyl)benzyl)-2-oxobenzo[cd]indol-1(2H)-yl)piperidine-2,6-dione], below 1 nM; under `O=C1CCC(N2C(=O)c3cccc4c(Cc5ccc(CN6CCN(C(=O)C7CC7)CC6)cc5)ccc2c34)C(=O)N1` (centres unmarked) [Compound 112, 3-(6-(4-((4-(cyclopropanecarbonyl)piperazin-1-yl)methyl)benzyl)-2-oxobenzo[cd]indol-1(2H)-yl)piperidine-2,6-dione], below 1 nM. As to `O=C1CCC(N2C(=O)c3cccc4c(Cc5ccc(CN6CCN(CC7CC7)CC6)cc5)ccc2c34)C(=O)N1` (centres unmarked) [Compound 113, 3-(6-(4-((4-(cyclopropylmethyl)piperazin-1-yl)methyl)benzyl)-2-oxobenzo[cd]indol-1(2H)-yl)piperidine-2,6-dione], the 50% inhibitory concentration (IC50) was below 1 nM.

Turning to `CN1CCN(Cc2ccc(Cc3ccc4c5c(cccc35)C(=O)N4C3CCC(=O)NC3=O)cc2)CC1` (centres unmarked) [Compound 114, 3-(6-(4-((4-methylpiperazin-1-yl)methyl)benzyl)-2-oxobenzo[cd]indol-1(2H)-yl)piperidine-2,6-dione], the IC50 is below 1 nM. With `O=C1CCC(N2C(=O)c3cccc4c(Cc5ccc(CN6CC7CCC(C6)O7)cc5)ccc2c34)C(=O)N1` (centres unmarked) [Compound 115, 3-(6-(4-((8-oxa-3-azabicyclo[3.2.1]octan-3-yl)methyl)benzyl)-2-oxobenzo[cd]indol-1(2H)-yl)piperidine-2,6-dione], the IC50 is below 1 nM. In the case of `CN1CCN(Cc2ccc(Cc3ccc4c5c(cccc35)C(=O)N4C3CCC(=O)NC3=O)cc2)CC1=O` (centres unmarked) [Compound 116, 3-(6-(4-((4-mcthyl-3-oxopiperazin-1-yl)methyl)benzyl)-2-oxobenzo[cd]indol-1(2H)-yl)piperidme-2,6-dione] it was below 1 nM; in that of `O=C1CCC(N2C(=O)c3cccc4c(Cc5ccc(CN6Cc7ccccc7C6)cc5)ccc2c34)C(=O)N1` (centres unmarked) [Compound 117, 3-(6-(4-(isoindolin-2-ylmethyl)benzyl)-2-oxobenzo[cd]indol-1(2H)-yl)piperidine-2,6-dione], below 1 nM; in that of `O=C1CCC(N2C(=O)c3cccc4c(Cc5ccc(CN6CCOc7ccccc7C6)cc5)ccc2c34)C(=O)N1` (centres unmarked) [Compound 118, 3-(6-(4-((2,3-dihydrobenzo[f][1,4]oxazepin-4(5H)-yl)methyl)benzyl)-2-oxobenzo[cd]indol-1(2H)-yl)piperidine-2,6-dione], below 1 nM. With `O=C1CCC(N2C(=O)c3cccc4c(Cc5ccc(CN6CCOC(c7ccc(F)cc7)C6)cc5)ccc2c34)C(=O)N1` (centres unmarked) [Compound 119, 3-(6-(4-((2-(4-fluorophenyl)morpholino)methyl)benzyl)-2-oxobenzo[cd]indol-1(2H)-yl)piperidine-2,6-dione], the IC50 is below 1 nM. Consider `O=C1CCC(N2C(=O)c3cccc4c(Cc5ccc(CN6CC(Oc7ccc(F)cc7)C6)cc5)ccc2c34)C(=O)N1` (centres unmarked) [Compound 120, 3-(6-(4-((3-(4-fluorophenoxy)azetidin-1-yl)methyl)benzyl)-2-oxobenzo[cd]indol-1(2H)-yl)piperidine-2,6-dione], for which the IC50 was below 1 nM. In the case of `O=C1CCC(N2C(=O)c3cccc4c(Cc5ccc(CN6CCn7c(nnc7C(F)(F)F)C6)cc5)ccc2c34)C(=O)N1` (centres unmarked) [Compound 121, 3-(2-oxo-6-(4-((3-(trifluoromethyl)-5,6-dihydro-[1,2,4]triazolo[4,3-a]pyrazin-7(8H)-yl)methyl)benzyl)benzo[cd]indol-1(2H)-yl)piperidine-2,6-dione] it was below 1 nM. On to `O=C1CCC(N2C(=O)c3cccc4c(Cc5ccc(CN6CCS(=O)(=O)CC6)cc5)ccc2c34)C(=O)N1` (centres unmarked) [Compound 122, 3-(6-(4-((1,4-dioxidothiomorpholino)methyl)benzyl)-2-oxobenzo[cd]indol-1(2H)-yl)piperidine-2,6-dione], for which the half-inhibitory concentration (IC50) was below 1 nM.

In the case of `O=C1CCC(N2C(=O)c3cccc4c(Cc5ccc(CN6CCCOCC6)cc5)ccc2c34)C(=O)N1` (centres unmarked) [Compound 123, 3-(6-(4-((1,4-oxazepan-4-yl)methyl)benzyl)-2-oxobenzo[cd]indol-1(2H)-yl)piperidine-2,6-dione], the IC50 was below 1 nM. For the molecule `COC(=O)c1ccc2c3c(cccc13)C(=O)N2C1CCC(=O)NC1=O` (centres unmarked) [Compound 124, methyl 1-(2,6-dioxo-3-piperidyl)-2-oxo-benzo[cd]indole-6-carboxylate], the IC50 is above 999 nM. In the case of `CC1(C(=O)N2CCC(c3cn(Cc4ccc5c6c(cccc46)C(=O)N5C4CCC(=O)NC4=O)nn3)CC2)CCC1` (centres unmarked) [Compound 125, 3-[6-[[4-[1-(1-methylcyclobutanecarbonyl)-4-piperidyl]triazol-1-yl]methyl]-2-oxo-benzo[cd]indol-1-yl]piperidine-2,6-dione], the IC50 is below 1 nM. `CC1(n2cc(Cc3ccc4c5c(cccc35)C(=O)N4C3CCC(=O)NC3=O)cn2)CCN(c2ncccc2F)CC1` (centres unmarked) [Compound 126, 3-[6-[[1-[1-(3-fluoro-2-pyridyl)-4-methyl-4-piperidyl]pyrazol-4-yl]methyl]-2-oxo-benzo[cd]indol-1-yl]piperidine-2,6-dione]: the half-inhibitory concentration (IC50) was below 1 nM. In the case of `CC1(c2cn(Cc3ccc4c5c(cccc35)C(=O)N4C3CCC(=O)NC3=O)nn2)CCN(C(=O)C2(C(F)(F)F)CC2)CC1` (centres unmarked) [Compound 127, 3-[6-[[4-[4-methyl-1-[1-(trifluoromethyl)cyclopropanecarbonyl]-4-piperidyl]triazol-1-yl]methyl]-2-oxo-benzo[cd]indol-1-yl]piperidine-2,6-dione] it was below 1 nM; in that of `N#Cc1ccc(N2CCN(Cc3cnn(Cc4ccc5c6c(cccc46)C(=O)N5C4CCC(=O)NC4=O)c3)CC2)c(F)c1` (centres unmarked) [Compound 128, 4-[4-[[1-[[1-(2,6-dioxo-3-piperidyl)-2-oxo-benzo[cd]indol-6-yl]methyl]pyrazol-4-yl]methyl]piperazin-1-yl]-3-fluoro-benzonitrile], below 1 nM. In the case of `N#Cc1ccc(N2CCN(Cc3ccc(Cc4ccc5c6c(cccc46)C(=O)N5C4CCC(=O)NC4=O)cc3)C3(CC3)C2)c(F)c1` (centres unmarked) [Compound 131, 4-[4-[[4-[[1-(2,6-dioxo-3-piperidyl)-2-oxo-benzo[cd]indol-6-yl]methyl]phenyl]methyl]-4,7-diazaspiro[2.5]octan-7-yl]-3-fluoro-benzonitrile] it was below 1 nM. With `CN(C(=O)N1CCC(n2cc(Cc3ccc4c5c(cccc35)C(=O)N4C3CCC(=O)NC3=O)cn2)CC1)C(C)(C)C` (centres unmarked) [Compound 132, N-tert-butyl-4-[4-[[1-(2,6-dioxo-3-piperidyl)-2-oxo-benzo[cd]indol-6-yl]methyl]pyrazol-1-yl]-N-methyl-piperidine-1-carboxamide], the IC50 is below 1 nM.

For the molecule `CC1(C(=O)N2CCC(C)(n3cc(Cc4ccc5c6c(cccc46)C(=O)N5C4CCC(=O)NC4=O)c(Cl)n3)CC2)CCC1` (centres unmarked) [Compound 133], the IC50 is below 1 nM. Under `O=C1CCC(N2C(=O)c3cccc4c(Cc5ccc(C(=O)N6CCN(c7ccccc7F)CC6)cc5)ccc2c34)C(=O)N1` (centres unmarked) [Compound 134, 3-[6-[[4-[4-(2-fluorophenyl)piperazine-1-carbonyl]phenyl]methyl]-2-oxo-benzo[cd]indol-1-yl]piperidine-2,6-dione] stands below 1 nM.
